# Results as given in paper PMC6859807 (Journal of Experimental Botany, 2019).
# Residues, ends and D or L forms follow the SMILES beside them. *: point of attachment. AMC = Cc1cc(=O)oc2cc(N*)ccc12; Cbz = O=C(OCc1ccccc1)*
# Target: recombinant HvPAP14 (HvPAP14:MBP) (Hordeum vulgare, UniProt B4ESF2)
# Assay: fluorogenic cleavage, ratio of […] nm / […] nm emission
# Format: biochemical
# Conditions: 20 uM substrate, pH 3.5-9; enzyme activated at pH 4.5
# recombinant HvPAP14 (HvPAP14:MBP), sequence (B4ESF2 30-367): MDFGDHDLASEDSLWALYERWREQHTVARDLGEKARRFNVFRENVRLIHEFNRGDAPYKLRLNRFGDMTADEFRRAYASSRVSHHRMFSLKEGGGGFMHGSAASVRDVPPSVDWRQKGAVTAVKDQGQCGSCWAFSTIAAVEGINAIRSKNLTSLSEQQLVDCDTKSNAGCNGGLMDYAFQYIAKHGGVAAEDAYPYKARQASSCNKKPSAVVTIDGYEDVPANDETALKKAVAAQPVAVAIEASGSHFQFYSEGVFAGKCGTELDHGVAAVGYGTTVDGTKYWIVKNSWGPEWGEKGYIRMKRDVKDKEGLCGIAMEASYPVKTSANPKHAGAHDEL
smiles,measurement,value
Cc1cc(=O)oc2cc(NC(=O)[C@H](CCCNC(=N)N)NC(=O)[C@H](Cc3ccccc3)NC(=O)OCc3ccccc3)ccc12 [Z-FR-AMC] (Cbz-Phe-Arg-{AMC}),"fluorogenic cleavage, ratio of 440 nm / 393 nm emission",activity of the recombinant protein was therefore tested at different pH values using the fluorescent
